Assays:
Type in all cases: in vitro ADME
human liver microsomes = system: human liver microsomes
Description: Livers were obtained from organ donors according to procedures is approved by the University of Queensland ethics committees. Samples of human liver were frozen in liquid nitrogen and stored at −70° C. prior to use. Microsomes were prepared according to the method of Guengerich except that microsomes were subjected to a final wash in 10 mM Tris-acetate, 1 mM EDTA and 20% glycerol pH 7.4 (resuspension buffer) to remove residual drugs (e.g. phenytoin—data not shown) present in donor livers.
Incubations (0.5 mL) with tissue fractions contained either the microsomal fraction at […] or the cytosolic fraction at 5 mg/mL protein in 100 mM potassium phosphate (pH 7.4) supplemented with is substrates (synthetic alkylamides 6, 11, 3 and 12 or the alkylamide fraction from the ethanolic liquid as required—see Figure legends for concentrations used) added from ethanolic stocks. Final ethanol concentrations were either 0.70% or 0.96% and were consistent in each assay. Reactions were initiated by the addition of an NADPH-generating system consisting of (final concentrations) […] NADP+, 10 mM glucose-6-phosphate and 0.5 μ/mL glucose-6-phosphate dehydrogenase. Negative controls and cytosolic incubations lacked an NADPH-generating system. Reaction mixtures were incubated at 37° C. with gentle agitation for the duration of each experiment. Reactions were terminated by addition of an equal volume of 100% methanol to a sample aliquot. Diluted samples were then centrifuged at 16000×g for 2 minutes and supernatants stored at −20° C. until analysis by LCMS.
Alkylamide concentrations in samples were determined by LCMS using a gradient HPLC system (Shimadzu LC1OAT) coupled to a quadrupole mass spectrometer (Shimadzu, QP8000a) operating in positive SIM mode with an APCI interface. The mobile phases were a mixture of water and acetonitrile. Alkylamides 6 and 3 were detected using a 65% acetonitrile isocratic run. Alkylamides 11 and 12 were detected using an 85% acetonitrile isocratic run. The alkylamide fraction was analysed using a gradient that increased from 20% to 40% acetonitrile over the first 5 minutes, then to 80% acetonitrile over the following 15 minutes and to 100% over the next 3 minutes followed by a re-equilibration period at 20% acetonitrile prior to the next injection. A similar gradient was used in scan and then SIM (M+1 of 248, 264, 246, 192, 280 and 282) modes to identify metabolites of 3. A C18, 3 m, 100×2.00 mm Phenomenex Luna column was used with a solvent flow rate of 0.3 mL/minute. All alkylamides were linear in the range 0.001-10 mg/mL (R^2>0.9) with a coefficient of variation between 4 and 5.
A number of pure, synthetic alkylamides (6, 11 3 and 12 as shown in FIG. 1) as well as the complex mixture of alkylamides obtained from an ethanolic extract of Echinacea were investigated for their susceptibility to liver P450-mediated degradation in microsomal preparations from four different subjects. The concentration of each substrate remaining at the given time points was quantified with LCMS and rates of substrate depletion were calculated as a percentage of the original concentration. […] From FIG. 3 it can be seen that there was a clear difference in the ability of the liver microsomal P450s to metabolise the synthetic 2-ene and the 2,4-diene alkylamides. […] In contrast, the 2,4-dienes were rapidly metabolised with only 9±2% of the original concentration of 3 and 2±1% of the original concentration of 12 detected after 2 hours. […]

liver P450 = experiment: inhibition of 2,4-diene alkylamide metabolism by co-incubation with a 2-ene alkylamide in human liver microsomes; settings: co-incubation of 3 with 6 at equimolar concentrations, 90 minutes
Description: Compound 3 was present at 20 μM in all experiments while 6 was present at (●) 0, (∘) 0.22, (▪) 2.2, ( ) 5.5, (▴) 9.0 and (Δ) 20 uM. Each point represents the mean for one microsomal preparation examined in duplicate. The deviation was less than 15 for each point.
Incubations (0.5 mL) with tissue fractions contained either the microsomal fraction at 0.1-0.2 mM P450 or the cytosolic fraction at 5 mg/mL protein in 100 mM potassium phosphate (pH 7.4) supplemented with is substrates (synthetic alkylamides 6, 11, 3 and 12 or the alkylamide fraction from the ethanolic liquid as required—see Figure legends for concentrations used) added from ethanolic stocks. Final ethanol concentrations were either 0.70% or 0.96% and were consistent in each assay. Reactions were initiated by the addition of an NADPH-generating system consisting of (final concentrations) 250 mM NADP+, 10 mM glucose-6-phosphate and 0.5 μ/mL glucose-6-phosphate dehydrogenase. Negative controls and cytosolic incubations lacked an NADPH-generating system. Reaction mixtures were incubated at 37° C. with gentle agitation for the duration of each experiment. Reactions were terminated by addition of an equal volume of 100% methanol to a sample aliquot. Diluted samples were then centrifuged at 16000×g for 2 minutes and supernatants stored at −20° C. until analysis by LCMS.

P450 2A13 = molecular target: T1, P450 2A13 (Homo sapiens, UniProt Q16696); experiment: metabolism of 3 by recombinant human P450; settings: recombinant P450 2A13, preliminary screen
T1 construct: made in house; host or cells: Escherichia coli, bacterial membrane fraction
T1 sequence (Q16696 1-494): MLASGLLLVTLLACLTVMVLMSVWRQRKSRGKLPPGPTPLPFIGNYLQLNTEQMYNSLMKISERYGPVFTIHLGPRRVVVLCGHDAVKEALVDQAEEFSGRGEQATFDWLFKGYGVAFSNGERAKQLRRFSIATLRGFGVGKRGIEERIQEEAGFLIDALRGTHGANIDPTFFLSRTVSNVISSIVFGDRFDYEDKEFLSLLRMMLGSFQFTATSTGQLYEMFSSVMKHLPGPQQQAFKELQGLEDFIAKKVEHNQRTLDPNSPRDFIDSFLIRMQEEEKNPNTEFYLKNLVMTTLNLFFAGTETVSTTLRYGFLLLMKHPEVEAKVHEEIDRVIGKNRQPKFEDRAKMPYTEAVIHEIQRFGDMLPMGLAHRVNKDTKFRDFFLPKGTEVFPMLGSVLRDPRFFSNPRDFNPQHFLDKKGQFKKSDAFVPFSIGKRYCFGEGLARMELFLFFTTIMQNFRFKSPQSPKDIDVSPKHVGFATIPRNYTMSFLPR

rate of alkylamide metabolism relative to the rate found for 6 (human liver microsomes): seven fold higher | % of initial levels still present (human liver microsomes; human, 2 h, pH 7.4): 66±26% | % of the original concentration of 3 detected (liver P450): 83±4% | consumption of 3 (P450 2A13): observed
SMILES: C/C=C\C=C/CC/C=C/C=C/C(=O)NCC(C)C [alkylamide 3, (2E,4E,8Z,10Z)—N-isobutyldodeca-2,4,8,10-tetraenamide]

Reference: patent US9205121B2, “Echinacea formulation” (Integria Healthcare (Australia) PTY LTD, priority 2004, dated 2015)
